Patent US20250057803A1, “PRODUCTS OF MANUFACTURE AND METHODS FOR TREATING, AMELIORATING OR PREVENTING CORONAVIRUS INFECTION” (TOPELIA AUST LIMITED (ACN 652 771 670), priority 2020, published 2025)

Assays:
coronavirus COVID-19 [1] = assay type: in vivo, human
coronavirus COVID-19 [2] = assay type: in vivo; details: contact of a positive patient; after 4 days of treatment

Row | SMILES | contraction of COVID-19 under prophylaxis (coronavirus COVID-19 [1]; […], group of elderly travelers on a ship with cases) | test for the virus upon arrival home after the cruise (coronavirus COVID-19 [1]; in vivo) | blood result for COVID-19 virus (coronavirus COVID-19 [2])
1 | CCN(CC)CCCC(C)Nc1ccnc2cc(Cl)ccc12 (stereo not drawn) [chloroquine] | None contract COVID-19 coronavirus | negative | 
2 | CCOC(=O)C1=C[C@@H](OC(CC)CC)[C@H](NC(C)=O)[C@@H](N)C1 [osteltamivir, oseltamivir] |  |  | positive
